According to PubChem BioAssay (NCI):
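Values below derive from 48-hour exposures of cells grown in 96-well plates, with endpoints linearly interpolated between the two concentrations bracketing the appropriate inhibition level. GI50 = concentration required for 50% inhibition of growth. TGI: total growth inhibition.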

Assays:
Test in all cases: DTP human tumour cell line panel, 48 h
SK-OV-3 ovarian = tested on: SK-OV-3 ovarian
HCT-15 colon = tested on: HCT-15 colon
SN12C renal = tested on: SN12C renal
UACC-62 melanoma = tested on: UACC-62 melanoma
OVCAR-3 ovarian = tested on: OVCAR-3 ovarian
RXF 393 renal = tested on: RXF 393 renal
CAKI-1 renal = tested on: CAKI-1 renal
ACHN renal = tested on: ACHN renal
OVCAR-8 ovarian = tested on: OVCAR-8 ovarian
NCI-H226 lung = tested on: NCI-H226 lung

SMILES	TGI (SK-OV-3 ovarian)	TGI (HCT-15 colon)	TGI (SN12C renal)	TGI (UACC-62 melanoma)	TGI (OVCAR-3 ovarian)	TGI (RXF 393 renal)	TGI (CAKI-1 renal)	TGI (ACHN renal)	TGI (OVCAR-8 ovarian)	TGI (NCI-H226 lung)	GI50 (SK-OV-3 ovarian)	GI50 (HCT-15 colon)	GI50 (SN12C renal)	GI50 (UACC-62 melanoma)	GI50 (OVCAR-3 ovarian)	GI50 (RXF 393 renal)	GI50 (CAKI-1 renal)	GI50 (ACHN renal)	GI50 (OVCAR-8 ovarian)	GI50 (NCI-H226 lung)
COc1cccc(N/C(C)=C2/CCOC2=O)c1	> 10 µM	> 10 µM	> 10 µM	> 10 µM	> 10 µM	> 10 µM	> 10 µM	> 10 µM	> 10 µM	> 10 µM										
Oc1cc(O)c2c(c1)O[C@H](c1ccc(O)c(O)c1)[C@@H](O)C2		> 100 µM	> 100 µM		> 100 µM		> 100 µM	> 100 µM	> 100 µM	> 100 µM										
CC1(CO)C(O)CCC2(C)C1CCC1CC3CC12CCC3(O)CO (stereo unspecified)	> 100 µM	> 100 µM	> 100 µM	> 100 µM	> 100 µM	> 100 µM	> 100 µM		> 100 µM	> 89.8 µM										
O=C(Nc1ccccc1)c1cc2ccccc2c(N=Nc2cccc([N+](=O)[O-])c2)c1O	> 100 µM	> 100 µM	> 100 µM	> 100 µM	> 100 µM	> 100 µM	> 100 µM	> 100 µM	> 100 µM	> 100 µM										
C[C@@H]1C[C@H]2OC(=O)[C@@]3(C)CCC[C@@](C)([C@@H]23)[C@@]1(O)CCc1ccoc1	> 100 µM	> 100 µM	> 100 µM	> 100 µM	> 100 µM	> 100 µM	> 100 µM	> 100 µM	> 100 µM	> 100 µM										
C1=N[C@]23C(=N[C@H](N=C2NCc2ccco2)[C@]24N=CNC2=N[C@H]3N=C4NCc2ccco2)N1	> 100 µM	> 100 µM	> 100 µM	> 100 µM	> 100 µM	> 100 µM	> 100 µM	> 100 µM	> 100 µM	> 100 µM	> 100 µM	> 100 µM	> 100 µM	> 100 µM	> 100 µM	> 100 µM	19.5 µM	> 100 µM	> 100 µM	65.4 µM
Cc1c(C)c2c(c(C)c1OC(=O)CCC(=O)[O-])CCC(C)(CCCCCCCCCCC[P+](c1ccccc1)(c1ccccc1)c1ccccc1)O2 (stereo unspecified)	0.538 µM	3.02 µM	0.615 µM	0.727 µM	0.542 µM		1.34 µM	0.909 µM	0.974 µM		0.157 µM	0.977 µM	0.165 µM	0.177 µM	0.145 µM		0.451 µM	0.264 µM	0.175 µM	
O=C(NN1C(=O)C(Cl)C1c1cccc(O)c1)c1ccccc1O (stereo unspecified)	> 100 µM	> 100 µM	> 100 µM	> 100 µM	> 100 µM	> 100 µM		> 100 µM	> 100 µM	> 100 µM										
